According to ChEMBL document CHEMBL1125853, “An acyliminium ion route to and Anti phe-gly dipeptide mimetics” (Bioorg Med Chem Lett, 1991):

Target: Angiotensin-converting enzyme (Homo sapiens, UniProt P12821)
Assay: Inhibitory constant angiotensin converting enzyme

Chain of Angiotensin-converting enzyme (P12821 whole entry): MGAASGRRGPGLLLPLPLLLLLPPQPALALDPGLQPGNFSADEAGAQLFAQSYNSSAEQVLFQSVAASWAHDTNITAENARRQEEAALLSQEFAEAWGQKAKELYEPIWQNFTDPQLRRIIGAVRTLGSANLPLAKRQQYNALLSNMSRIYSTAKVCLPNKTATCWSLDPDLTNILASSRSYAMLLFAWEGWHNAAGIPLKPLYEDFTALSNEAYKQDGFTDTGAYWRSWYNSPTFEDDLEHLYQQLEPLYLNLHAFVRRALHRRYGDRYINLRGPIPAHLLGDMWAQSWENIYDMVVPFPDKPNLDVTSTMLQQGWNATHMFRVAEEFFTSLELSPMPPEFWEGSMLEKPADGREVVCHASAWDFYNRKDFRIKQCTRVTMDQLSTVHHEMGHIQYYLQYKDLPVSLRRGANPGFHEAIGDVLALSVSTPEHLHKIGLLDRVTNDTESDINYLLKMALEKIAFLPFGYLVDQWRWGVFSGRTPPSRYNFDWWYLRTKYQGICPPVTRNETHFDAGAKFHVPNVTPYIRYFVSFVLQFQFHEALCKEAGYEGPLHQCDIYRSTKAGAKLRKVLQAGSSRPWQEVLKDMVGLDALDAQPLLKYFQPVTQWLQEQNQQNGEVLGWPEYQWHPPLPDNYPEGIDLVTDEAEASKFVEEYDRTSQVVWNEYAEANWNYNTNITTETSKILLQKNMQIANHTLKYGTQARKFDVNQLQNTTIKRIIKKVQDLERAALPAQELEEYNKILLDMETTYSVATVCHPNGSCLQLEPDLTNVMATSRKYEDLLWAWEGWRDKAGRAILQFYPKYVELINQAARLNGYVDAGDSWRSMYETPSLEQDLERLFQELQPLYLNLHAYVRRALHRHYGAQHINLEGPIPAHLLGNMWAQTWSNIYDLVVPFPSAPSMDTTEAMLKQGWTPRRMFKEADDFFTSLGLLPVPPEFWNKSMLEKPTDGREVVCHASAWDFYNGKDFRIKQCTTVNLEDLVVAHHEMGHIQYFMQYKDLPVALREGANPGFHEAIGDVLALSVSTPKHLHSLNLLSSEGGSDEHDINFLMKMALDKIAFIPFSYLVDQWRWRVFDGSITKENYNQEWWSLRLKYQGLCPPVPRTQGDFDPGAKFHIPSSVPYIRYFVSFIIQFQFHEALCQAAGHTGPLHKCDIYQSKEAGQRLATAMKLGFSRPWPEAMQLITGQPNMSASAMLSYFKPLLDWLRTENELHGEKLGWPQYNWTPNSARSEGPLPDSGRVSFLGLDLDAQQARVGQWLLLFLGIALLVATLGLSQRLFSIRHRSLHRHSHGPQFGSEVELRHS

O=C(O)CN1Cc2ccccc2CC(N[C@H](CCc2ccccc2)C(=O)O)C1=O (stereo partly specified)
Ki: 10 nM
